Laboratory results from patent US5830697A, “P-glycoprotein mutant resistant to cyclosporin modulation” (The Board of Trustees of the Leland Stanford Junior …, priority 1997, dated 1998).
Where two headings read alike, the source gives them in different places. Blank lines part the entries; values can stand above or below the compound they belong to.

Experiments:
[1] = tested on: MES-SA/DxP5002 (DxP) cells; test: Growth inhibition (MTT) assay, with or without MDR modulators; details: for Fold resistance / Level of resistance of DxP cells to the cytotoxin compared with parental Dx5 (in words): DxP cells; for Dx5/DxP, fold of resistance difference in DxP cells compared with parental Dx5 cells: DxP vs Dx5
Method: Cells and Tissue Culture. […] Monolayer cultures of MES-SA cells and its variants were grown in McCoy's medium (Irvine Scientific, Santa Ana, Calif.) supplemented with 10% newborn calf serum (Gibco, Grand Island, N.Y.), 2 mM L-glutamine, and antibiotics(100 U/ml penicillin, 100 μg/ml streptomycin).
Growth Inhibition Assay. Approximately 8000 cells per well were seeded in 96 well plates and incubated with or without drugs for 72 hr at 37° C. in an atmosphere of 5% CO2. Growth inhibition was evaluated by the MTT colorimetric assay in triplicate or quadruplicate as previously described. The absorbance was measured with a ThermoMax microplate reader (Molecular Devices, Menlo Park, Calif.). […] The doubling times of MES-SA, D×5, and D×P were determined as previously described.
(§1) Reversal of MDR by Modulators. […] The modulation ratio was obtained by comparing IC50 s in the presence and absence of modulators.

MES-SA cells = test: as above; format: cell-based, human; details: for IC50: Homo sapiens, read-out: IC50 of drug-sensitive MES-SA cells (values in parenthesis)
Method: (§2) Cells and Tissue Culture. Details of the development and characterization of the human cell line MES-SA and its MDR variant MES-SA/Dx5 (D×5), which were derived from sarcoma elements of a uterine mixed Mullerian tumor, are described in Harker and Sikic (1985) Cancer Research 45:3810-3815. MES-SA/DxP5002 (DxP) cells were derived from Dx5.05 cells (D×5 cells selected and maintained at a DOX concentration of 0.5 μM) by step-wise selection in the presence of increasing DOX concentrations (from 40 nM up to 0.5 μM) and a constant PSC 833 concentration at 2 μM over a one-year period. Monolayer cultures of MES-SA cells and its variants were grown in McCoy's medium (Irvine Scientific, Santa Ana, Calif.) supplemented with 10% newborn calf serum (Gibco, Grand Island, N.Y.), 2 mM L-glutamine, and antibiotics(100 U/ml penicillin, 100 μg/ml streptomycin).
(§3) Growth Inhibition Assay. Approximately 8000 cells per well were seeded in 96 well plates and incubated with or without drugs for 72 hr at 37° C. in an atmosphere of 5% CO2. Growth inhibition was evaluated by the MTT colorimetric assay in triplicate or quadruplicate as previously described. The absorbance was measured with a ThermoMax microplate reader (Molecular Devices, Menlo Park, Calif.). The IC50 (drug concentration resulting in 50% inhibition of MTT dye formation, compared to controls) was determined directly from semi-logarithmic dose-response curves. The doubling times of MES-SA, D×5, and D×P were determined as previously described.
as §1

MES-SA/Dx5 (Dx5) cells = test: as above; format: cell-based, human
Method: as §2, §3, §1

[2] = target: P-gp of DxP cells (Phe335/336 deletion) (Homo sapiens, UniProt P08183, DEL335-335)
Method: (§5) Photoaffinity Labeling with [^25 -I]-iodoarylazidoprazesin and [^3 H]-Azidopine. […] These preparations were incubated at 25° C. for 1 hour in the dark, followed by a 20 min exposure to a 366 nm UV source (UVP, Inc., San Gabriel, Calif.). 50 μl of loading buffer was added and proteins separated on an 8% SDS-polyacrylamide gel, dried, and analyzed by autoradiography.

P-gp of Dx5 cells = P-gp of Dx5 cells (Homo sapiens, UniProt P08183)
Method: as §5

Dx/PES cells = test: MTT assay, DxP subclone; format: cell-based, human
Method: as §3, §1
(§4) Clonal Analysis of D×P cells. Subcloning of cells was performed by limiting dilution. Both resistant and revertant clones were analyzed for the MDR phenotype, drug accumulation, and rt-PCR or heteroduplex as described above.

Dx/PCS cells = test: MTT assay, DxP subclone; format: cell-based, human
Method: as §3, §1, §4

Dx/PJS cells = test: MTT assay, DxP subclone; format: cell-based, human
Method: as §3, §1, §4

Dx/PAS cells = test: MTT assay, DxP subclone; format: cell-based, human
Method: as §3, §1, §4

Dx/PIS cells = test: MTT assay, DxP subclone; format: cell-based, human
Method: as §3, §1, §4

Dx/PMS cells = test: MTT assay, DxP subclone; format: cell-based, human
Method: as §3, §1, §4

Dx/PFS cells = test: MTT assay, DxP subclone; format: cell-based, human
Method: as §3, §1, §4

Dx/PGS cells = test: MTT assay, DxP subclone; format: cell-based, human
Method: as §3, §1, §4

Dx/PBS cells = test: MTT assay, DxP subclone; format: cell-based, human
Method: as §3, §1, §4

Dx/PDS cells = test: MTT assay, DxP subclone; format: cell-based, human
Method: as §3, §1, §4

[3] = no modulator, relative to MES-SA
[4] = MES-SA cells, no modulator, 72 hr MTT

Sequence of P-gp of DxP cells (Phe335/336 deletion) (P08183 with tags, fused parts or gaps DEL335-335): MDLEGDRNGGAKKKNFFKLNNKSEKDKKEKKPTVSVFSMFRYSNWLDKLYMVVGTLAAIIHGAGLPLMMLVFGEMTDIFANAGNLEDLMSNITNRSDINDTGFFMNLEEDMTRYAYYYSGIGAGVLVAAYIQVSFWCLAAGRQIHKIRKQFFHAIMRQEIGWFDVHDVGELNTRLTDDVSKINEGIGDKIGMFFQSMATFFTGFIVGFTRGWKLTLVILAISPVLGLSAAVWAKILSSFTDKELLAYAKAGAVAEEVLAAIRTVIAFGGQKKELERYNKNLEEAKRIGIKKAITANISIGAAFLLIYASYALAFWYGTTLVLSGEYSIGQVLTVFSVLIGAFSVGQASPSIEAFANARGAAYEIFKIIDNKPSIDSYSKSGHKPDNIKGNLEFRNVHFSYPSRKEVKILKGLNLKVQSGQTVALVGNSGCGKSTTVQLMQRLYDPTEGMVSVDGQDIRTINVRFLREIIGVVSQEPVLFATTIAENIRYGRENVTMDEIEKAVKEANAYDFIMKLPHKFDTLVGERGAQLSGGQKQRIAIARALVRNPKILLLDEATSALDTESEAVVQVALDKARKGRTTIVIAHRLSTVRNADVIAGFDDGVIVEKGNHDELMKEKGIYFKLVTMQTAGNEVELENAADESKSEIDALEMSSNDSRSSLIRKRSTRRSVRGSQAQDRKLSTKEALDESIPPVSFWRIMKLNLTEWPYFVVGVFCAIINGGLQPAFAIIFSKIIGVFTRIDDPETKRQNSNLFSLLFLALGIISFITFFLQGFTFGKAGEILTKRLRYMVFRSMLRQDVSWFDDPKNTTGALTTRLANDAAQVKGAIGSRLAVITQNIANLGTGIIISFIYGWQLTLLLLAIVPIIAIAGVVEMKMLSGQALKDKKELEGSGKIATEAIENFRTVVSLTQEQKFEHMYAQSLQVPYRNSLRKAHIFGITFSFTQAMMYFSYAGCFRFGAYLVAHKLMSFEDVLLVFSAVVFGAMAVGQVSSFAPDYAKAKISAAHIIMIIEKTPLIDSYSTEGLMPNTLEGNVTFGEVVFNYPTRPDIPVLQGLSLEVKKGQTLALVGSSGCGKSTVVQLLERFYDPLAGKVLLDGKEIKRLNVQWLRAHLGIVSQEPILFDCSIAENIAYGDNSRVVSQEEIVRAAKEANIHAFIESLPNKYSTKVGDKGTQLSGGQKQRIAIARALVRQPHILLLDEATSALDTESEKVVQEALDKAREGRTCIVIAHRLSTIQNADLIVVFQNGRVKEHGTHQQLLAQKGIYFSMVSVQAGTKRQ
Sequence of P-gp of Dx5 cells (P08183 whole entry): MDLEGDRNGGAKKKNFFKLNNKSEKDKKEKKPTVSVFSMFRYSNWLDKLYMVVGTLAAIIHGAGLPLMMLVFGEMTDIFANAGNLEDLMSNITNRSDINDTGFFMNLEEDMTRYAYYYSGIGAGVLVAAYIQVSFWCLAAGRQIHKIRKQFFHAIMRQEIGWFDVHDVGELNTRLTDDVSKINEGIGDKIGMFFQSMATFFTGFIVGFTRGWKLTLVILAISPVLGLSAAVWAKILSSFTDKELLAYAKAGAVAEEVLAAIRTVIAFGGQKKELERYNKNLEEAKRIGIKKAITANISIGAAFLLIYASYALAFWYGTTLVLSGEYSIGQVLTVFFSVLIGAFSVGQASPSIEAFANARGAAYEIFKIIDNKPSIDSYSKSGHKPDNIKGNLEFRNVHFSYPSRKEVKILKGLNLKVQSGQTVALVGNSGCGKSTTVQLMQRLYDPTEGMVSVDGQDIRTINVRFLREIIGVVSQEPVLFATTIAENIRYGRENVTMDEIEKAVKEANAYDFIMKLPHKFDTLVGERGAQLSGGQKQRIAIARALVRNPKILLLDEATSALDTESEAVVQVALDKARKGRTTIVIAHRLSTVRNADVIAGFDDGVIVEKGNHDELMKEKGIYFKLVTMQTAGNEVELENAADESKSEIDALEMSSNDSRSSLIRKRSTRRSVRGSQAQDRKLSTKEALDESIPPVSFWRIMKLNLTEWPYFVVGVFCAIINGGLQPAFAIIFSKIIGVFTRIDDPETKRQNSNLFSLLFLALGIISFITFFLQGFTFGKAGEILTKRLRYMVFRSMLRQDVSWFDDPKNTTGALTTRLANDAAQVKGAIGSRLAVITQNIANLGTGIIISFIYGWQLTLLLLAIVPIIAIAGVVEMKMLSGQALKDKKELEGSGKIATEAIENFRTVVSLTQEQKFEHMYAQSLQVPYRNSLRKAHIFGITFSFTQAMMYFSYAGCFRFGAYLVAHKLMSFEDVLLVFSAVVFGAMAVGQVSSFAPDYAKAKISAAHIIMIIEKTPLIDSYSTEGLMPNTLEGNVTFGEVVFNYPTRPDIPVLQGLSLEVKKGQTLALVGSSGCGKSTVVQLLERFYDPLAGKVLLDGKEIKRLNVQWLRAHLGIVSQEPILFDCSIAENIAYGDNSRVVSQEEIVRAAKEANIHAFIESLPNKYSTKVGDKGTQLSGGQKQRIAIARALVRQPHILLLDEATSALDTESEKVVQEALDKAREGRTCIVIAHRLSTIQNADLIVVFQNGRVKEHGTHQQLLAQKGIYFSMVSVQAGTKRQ

SMILES: COc1cc(NS(C)(=O)=O)ccc1Nc1c2ccccc2nc2ccccc12 [Amsacrine]
Fold resistance [1, 3]: 2 fold
Dx5/DxP, fold of resistance difference in DxP cells compared with parental Dx5 cells [1]: 13 fold
IC50 (MES-SA cells; MES-SA cells, 72 hr MTT): 100 nM
Fold resistance (MES-SA cells; [4]): 1 fold
Fold resistance (MES-SA/Dx5 (Dx5) cells; [3]): 26 fold

Displacement of [3H]-azidopine photoaffinity labeling [2]: resistant to the displacement
Effect on [125I]-iodoarylazidoprazosin photoaffinity labeling of P-gp ([2]; 100 μM): abolished detectable P-gp labeling
Effect on [125I]-iodoarylazidoprazosin photoaffinity labeling of P-gp ([2]; 0.1 and 10 μM): enhanced photoaffinity binding
Effect on [125I]-iodoarylazidoprazosin photoaffinity labeling of P-gp (P-gp of Dx5 cells; 100 μM): abolished detectable P-gp labeling
Effect on [125I]-iodoarylazidoprazosin photoaffinity labeling of P-gp (P-gp of Dx5 cells; 0.1 and 10 μM): effectively competed
SMILES: CC[C@]1(O)C[C@@H]2CN(CCc3c([nH]c4ccccc34)[C@@](C(=O)OC)(c3cc4c(cc3OC)N(C)[C@H]3[C@@](O)(C(=O)OC)[C@H](OC(C)=O)[C@]5(CC)C=CCN6CC[C@]43[C@@H]65)C2)C1 [Vinblastine]
Fold resistance ([1]; +2 μM PSC 833): 12 fold
Fold resistance ([1]; +3 μM cyclosporin A): 7 fold
Fold resistance ([1]; +6 μM Verapamil): 3 fold
Fold resistance [1, 3]: 14 fold
Dx5/DxP, fold of resistance difference in DxP cells compared with parental Dx5 cells [1]: 17 fold
IC50 (MES-SA cells; MES-SA cells, 72 hr MTT): 4 nM
Fold resistance (MES-SA cells; MES-SA cells, +2 μM PSC 833): 0.3-1 fold
Fold resistance (MES-SA cells; MES-SA cells, +2 μM PSC 833, listed as vinblastine): 0.5 fold
Fold resistance (MES-SA cells; MES-SA cells, +3 μM cyclosporin A): 0.5-1 fold
Fold resistance (MES-SA cells; MES-SA cells, +6 μM Verapamil): 0.4-1 fold
Fold resistance (MES-SA cells; [4]): 1 fold
Fold resistance (MES-SA/Dx5 (Dx5) cells; +2 μM PSC 833): 1 fold
Fold resistance (MES-SA/Dx5 (Dx5) cells; +3 μM cyclosporin A): 6 fold
Fold resistance (MES-SA/Dx5 (Dx5) cells; +6 μM Verapamil): 4 fold
Fold resistance (MES-SA/Dx5 (Dx5) cells; [3]): 243 fold
fold resistance relative to MES-SA (Dx/PES cells; + PSC): 1 fold
fold resistance relative to MES-SA (Dx/PES cells; no modulator): 3 fold
fold resistance relative to MES-SA (Dx/PCS cells; + PSC): 3 fold
fold resistance relative to MES-SA (Dx/PCS cells; no modulator): 8 fold
fold resistance relative to MES-SA (Dx/PJS cells; + PSC): 10 fold
fold resistance relative to MES-SA (Dx/PJS cells; no modulator): 19 fold
fold resistance relative to MES-SA (Dx/PAS cells; + PSC): 5 fold
fold resistance relative to MES-SA (Dx/PAS cells; no modulator): 15 fold
fold resistance relative to MES-SA (Dx/PIS cells; + PSC): 1 fold
fold resistance relative to MES-SA (Dx/PIS cells; no modulator): 2 fold
fold resistance relative to MES-SA (Dx/PMS cells; + PSC): 2 fold
fold resistance relative to MES-SA (Dx/PMS cells; no modulator): 5 fold
fold resistance relative to MES-SA (Dx/PFS cells; + PSC): 8 fold
fold resistance relative to MES-SA (Dx/PFS cells; no modulator): 21 fold
fold resistance relative to MES-SA (Dx/PGS cells; + PSC): 1 fold
fold resistance relative to MES-SA (Dx/PGS cells; no modulator): 2 fold
fold resistance relative to MES-SA (Dx/PBS cells; + PSC): 1 fold
fold resistance relative to MES-SA (Dx/PBS cells; no modulator): 3 fold
fold resistance relative to MES-SA (Dx/PDS cells; + PSC): 6 fold
fold resistance relative to MES-SA (Dx/PDS cells; no modulator): 20 fold

SMILES: COc1cc([C@@H]2c3cc4c(cc3[C@@H](O[C@@H]3O[C@@H]5CO[C@@H](C)O[C@H]5[C@H](O)[C@H]3O)[C@H]3COC(=O)[C@H]23)OCO4)cc(OC)c1O [Etoposide]
Level of resistance of DxP cells to the cytotoxin compared with parental Dx5 (in words) [1]: moderately decreased resistance
Fold resistance ([1]; +2 μM PSC 833): 18 fold
Dx5/DxP, fold of resistance difference in DxP cells compared with parental Dx5 cells [1]: 2 fold
IC50 (MES-SA cells; MES-SA cells, 72 hr MTT): 500 nM
Fold resistance (MES-SA cells; MES-SA cells, +2 μM PSC 833): 1 fold
Fold resistance (MES-SA cells; [4]): 1 fold
Fold resistance (MES-SA/Dx5 (Dx5) cells; +2 μM PSC 833): 1 fold
Fold resistance (MES-SA/Dx5 (Dx5) cells; [3]): 42 fold

SMILES: COc1cc2c(c(OC)c1OC)-c1ccc(OC)c(=O)cc1[C@@H](NC(C)=O)CC2 [Colchicine]
Level of resistance of DxP cells to the cytotoxin compared with parental Dx5 (in words) [1]: high levels of resistance

SMILES: COc1cccc2c1C(=O)c1c(O)c3c(c(O)c1C2=O)C[C@@](O)(C(C)=O)C[C@@H]3O[C@H]1C[C@H](N)[C@H](O)[C@H](C)O1 [Daunorubicin]
Level of resistance of DxP cells to the cytotoxin compared with parental Dx5 (in words) [1]: slightly decreased
Fold resistance [1, 3]: 25 fold
Dx5/DxP, fold of resistance difference in DxP cells compared with parental Dx5 cells [1]: 3 fold
IC50 (MES-SA cells; MES-SA, 72 h): 20 nM
Fold resistance (MES-SA cells; [4]): 1 fold
Fold resistance (MES-SA/Dx5 (Dx5) cells; [3]): 75 fold
